In patent publication US9751837B2, “Kinase inhibitors” (RESPIVERT LIMITED, priority 2014, dated 2017):
Values after ≈ are worked out from the molar mass of the structure shown. Where a name gives a salt, the structure may show the parent alone. Read-outs that look alike come from different tables or passages of the source.

Assay: Solubility in fasted-state simulated colonic fluid (FaSSCoF) at pH 6.5
Assay type: physicochemical
Details: for solubility thermodynamic at 24 h: 25 °C, pH 6.5, fassgf or other biorelevant, thermodynamic from solid
Procedure: The solubilities of compounds of the invention in FaSSCoF at pH 6.5 are determined using a modification of a previously-reported procedure (Vertzoni, M., et al. Pharm. Res. 2010, 27, 2187-2196). In place of the bile salt extract employed in the original procedure (which extract is no longer available), the modified procedure uses a mixture of sodium taurochlorate (0.15 g), glycocholic acid (0.15 g), ursodeoxycholic acid (0.05 g), cholic acid (0.05 g), and glycodeoxycholic acid (0.05 g). These five bile acids are ground together with a mortar and pestle to produce a fine white powder that is incorporated into the FaSSCoF, as outlined below.
Tris(hydroxymethyl)aminomethane (Tris; 0.275 g) and maleic acid (0.44 g) are dissolved in water (35 mL) to give a solution whose pH is adjusted to 6.5 by treatment with 0.5M NaOH (ca. 12 mL). The solution is then made up to 50 mL with water. A portion of this Tris/maleate buffer solution (ca. 25 mL) is added to a 0.5 L round-bottomed flask, before being treated with 0.00565 g of the bile acid mixture described above. Solutions of phosphatidylcholine (0.0111 g) in DCM (0.15 mL) and palmitic acid (0.0013 g) in DCM (0.15 mL) are added, then the organic solvent is evaporated off under reduced pressure at 40° C. until a clear solution, with no perceptible DCM odour, is achieved. The volume of the evaporated solution is adjusted to 50 mL by addition of the remainder of Tris/maleate buffer, then BSA (0.115 g) is added, before being dissolved by gentle agitation.
Test compounds are suspended in the pH 6.5 FaSSCoF medium to give a maximum final concentration of 2-10 mg/mL. The suspensions are equilibrated at 25° C. for 24 h, before being filtered through a glass fibre C filter. The filtrates are then diluted as appropriate for injection and quantification by HPLC with reference to a standard. Different volumes of the standard, diluted and undiluted sample solutions are injected and the solubilities are calculated using the peak areas determined by integration of the peak found at the same retention time as the principal peak in the standard injection.

[1] = pH 6.5 FaSSCoF Solubility (mg/mL) Run 1
[2] = pH 6.5 FaSSCoF Solubility (mg/mL) Run 2

| SMILES | solubility thermodynamic at 24 h [1] [mg/mL] | solubility thermodynamic at 24 h [2] [mg/mL] | other results |
| --- | --- | --- | --- |
| COc1cc(Nc2cc(Oc3ccc(NC(=O)Nc4cc(C(C)(C)C)cc(NS(C)(=O)=O)c4OC)c4ccccc34)ccn2)ccc1C(=O)NC[C@@H]1O[C@H](CO)[C@@H](O)[C@H](O)[C@H]1O [17(co), 4-((4-((4-(3-(5-(tert-Butyl)-2-methoxy-3-(methylsulfonamido)phenyl)ureido)naphthalen-1-yl)oxy)pyridin-2-yl)amino)-2-methoxy-N-(((2S,3R,4R,5S,6R)-3,4,5-trihydroxy-6-(hydroxymethyl)tetrahydro-2H-pyran-2-yl)methyl)benzamide] | – | – | solubility thermodynamic at 24 h (FaSSCoF pH 6.5, 25° C., 24 h, Run 1, read-out: pH 6.5 FaSSCoF Solubility (mg/mL) Run 1): 0.005 mg/mL (≈ 5.71 µM); solubility thermodynamic at 24 h (FaSSCoF pH 6.5, 25° C., 24 h, Run 2, read-out: pH 6.5 FaSSCoF Solubility (mg/mL) Run 2): 0.006 mg/mL (≈ 6.86 µM) |
| COc1cc(Nc2cc(Oc3ccc(NC(=O)Nc4cc(C(C)(C)C)cc(NS(C)(=O)=O)c4OC)c4ccccc34)ccn2)ccc1C(=O)NCCOCCOCCOP(=O)(O)O [19 (ammonium salt), 2-(2-(2-(4-((4-((4-(3-(5-(tert-Butyl)-2-methoxy-3-(methylsulfonamido)phenyl)ureido)-naphthalen-1-yl)oxy)pyridin-2-yl)amino)-2-methoxybenzamido)ethoxy)ethoxy)ethyl dihydrogen phosphate] | 0.946 | 0.881 | – |
| COc1cc(Nc2cc(Oc3ccc(NC(=O)Nc4cc(C(C)(C)C)cc(NS(C)(=O)=O)c4OC)c4ccccc34)ccn2)ccc1C(=O)NCCOCCOCCOP(=O)(O)O [19 (sodium salt), 2-(2-(2-(4-((4-((4-(3-(5-(tert-Butyl)-2-methoxy-3-(methylsulfonamido)phenyl)ureido)-naphthalen-1-yl)oxy)pyridin-2-yl)amino)-2-methoxybenzamido)ethoxy)ethoxy)ethyl dihydrogen phosphate] | – | – | pH 6.5 FaSSCoF Solubility (mg/mL) Run 1 (24 h, pH 6.5): >4.7 mg/mL |
| COc1cc(Nc2cc(Oc3ccc(NC(=O)Nc4cc(C(C)(C)C)cc(NS(C)(=O)=O)c4OC)c4ccccc34)ccn2)ccc1C(=O)NCCCCCCC(=O)O [34 (hydrochloride salt), 7-(4-((4-((4-(3-(5-(tert-Butyl)-2-methoxy-3-(methylsulfonamido)phenyl)ureido)naphthalen-1-yl)oxy)pyridin-2-yl)amino)-2-methoxybenzamido)heptanoic acid, hydrochloride salt] | 0.001 | 0.001 | – |
| COc1cc(Nc2cc(Oc3ccc(NC(=O)Nc4cc(C(C)(C)C)cc(NS(C)(=O)=O)c4OC)c4ccccc34)ccn2)ccc1C(=O)NCCOP(=O)(O)O [35 (sodium salt), 2-(4-((4-((4-(3-(5-(tert-Butyl)-2-methoxy-3-(methylsulfonamido)phenyl)ureido)naphthalen-1-yl)oxy)pyridin-2-yl)amino)-2-methoxybenzamido)ethyl dihydrogen phosphate] | > 3.5 | > 4.2 | – |
| COc1cc(Nc2cc(Oc3ccc(NC(=O)Nc4cc(C(C)(C)C)cc(NS(C)(=O)=O)c4OC)c4ccccc34)ccn2)cc(OC)c1C(=O)NCCOCCOCCOP(=O)(O)O [47 (sodium salt), 2-(2-(2-(4-((4-((4-(3-(5-(tert-butyl)-2-methoxy-3-(methylsulfonamido)phenyl)ureido)-naphthalen-1-yl)oxy)pyridin-2-yl)amino)-2,6-dimethoxybenzamido)ethoxy)ethoxy)ethyl dihydrogen phosphate] | > 1.9 | > 2 | – |
| COc1c(NC(=O)Nc2ccc(Oc3ccnc(Nc4ccc(P(C)(=O)O)c(N(C)C)c4)c3)c3ccccc23)cc(C(C)(C)C)cc1NS(C)(=O)=O [68 (sodium salt)] | 0.02 | 0.02 | – |
| COc1cc(Nc2cc(Oc3ccc(NC(=O)Nc4cc(C(C)(C)C)cc(NS(C)(=O)=O)c4OC)c4ccccc34)ccn2)ccc1CP(C)(=O)O [70 (sodium salt)] | > 2.8 | > 2.8 | – |
| COc1cc(Nc2cc(Oc3ccc(NC(=O)Nc4cc(C(C)(C)C)cc(NS(C)(=O)=O)c4OC)c4ccccc34)ccn2)ccc1S(=O)(=O)CCCN1CCOCC1 [Example 20, N-(5-(tert-Butyl)-2-methoxy-3-(3-(4-((2-((3-methoxy-4-((3-morpholinopropyl)sulfonyl)phenyl)-amino)pyridin-4-yl)oxy)naphthalen-1-yl)ureido)phenyl)methanesulfonamide] | 0.004 (≈ 4.72 µM) | – | – |
| COc1c(NC(=O)Nc2ccc(Oc3ccnc(Nc4ccc(C(=O)NCCN5CCOCC5)c(N(C)C)c4)c3)c3ccccc23)cc(C(C)(C)C)cc1NS(C)(=O)=O [Example 21, 4-((4-((4-(3-(5-(tert-Butyl)-2-methoxy-3-(methylsulfonamido)phenyl)ureido)naphthalen-1-yl)oxy)pyridin-2-yl)amino)-2-(dimethylamino)-N-(2-morpholinoethyl)benzamide] | 0.01 (≈ 12.1 µM) | 0.01 (≈ 12.1 µM) | – |
| COc1cc(Nc2cc(Oc3ccc(NC(=O)Nc4cc(C(C)(C)C)cc(NS(C)(=O)=O)c4OC)c4ccccc34)ccn2)cc(OC)c1C(=O)NCCCN1CCOCC1 [Example 23, 4-((4-((4-(3-(5-(tert-Butyl)-2-methoxy-3-(methylsulfonamido)phenyl)ureido)naphthalen-1-yl)oxy)pyridin-2-yl)amino)-2,6-dimethoxy-N-(3-morpholinopropyl)benzamide] | 0.008 (≈ 9.35 µM) | 0.008 (≈ 9.35 µM) | – |
| COc1cc(Nc2cc(Oc3ccc(NC(=O)Nc4cc(C(C)(C)C)cc(NS(C)(=O)=O)c4OC)c4ccccc34)ccn2)ccc1C(=O)NCCN1CCN(C2CC2)CC1 [Example 26, 4-((4-((4-(3-(5-(tert-Butyl)-2-methoxy-3-(methylsulfonamido)phenyl)ureido)naphthalen-1-yl)oxy)pyridin-2-yl)amino)-N-(2-(4-cyclopropylpiperazin-1-yl)ethyl)-2-methoxybenzamide] | 0.011 (≈ 12.9 µM) | 0.011 (≈ 12.9 µM) | – |
| COc1cc(Nc2cc(Oc3ccc(NC(=O)Nc4cc(C(C)(C)C)cc(NS(C)(=O)=O)c4OC)c4ccccc34)ccn2)ccc1C(=O)NCC[N+]1([O-])CCOCC1 [Example 33, 4-(2-(4-((4-((4-(3-(5-(tert-Butyl)-2-methoxy-3-(methylsulfonamido)phenyl)ureido)naphthalen-1-yl)oxy)pyridin-2-yl)amino)-2-methoxybenzamido)ethyl)morpholine 4-oxide] | 0.005 (≈ 6.04 µM) | 0.005 (≈ 6.04 µM) | – |
| COc1cc(Nc2cc(Oc3ccc(NC(=O)Nc4cc(C(C)(C)C)cc(NS(C)(=O)=O)c4OC)c4ccccc34)ccn2)cc(OC)c1C(=O)NCCN1CCN(CCO)CC1 [Example 37, 4-((4-((4-(3-(5-(tert-Butyl)-2-methoxy-3-(methylsulfonamido)phenyl)ureido)naphthalen-1-yl)oxy)pyridin-2-yl)amino)-N-(2-(4-(2-hydroxyethyl)piperazin-1-yl)ethyl)-2,6-dimethoxybenzamide] | 0.025 (≈ 28.2 µM) | 0.024 (≈ 27.1 µM) | solubility thermodynamic at 24 h (pH 6.5 FaSSCoF Solubility (mg/mL) Run 3): 0.007 mg/mL (≈ 7.91 µM); solubility thermodynamic at 24 h (pH 6.5 FaSSCoF Solubility (mg/mL) Run 4): 0.006 mg/mL (≈ 6.78 µM) |
| COc1cc(Nc2cc(Oc3ccc(NC(=O)Nc4cc(C(C)(C)C)cc(NS(C)(=O)=O)c4OC)c4ccccc34)ccn2)ccc1S(=O)(=O)CCOCCOCCO [Example 40, N-(5-(tert-Butyl)-3-(3-(4-((2-((4-((2-(2-(2-hydroxyethoxy)ethoxy)ethyl)sulfonyl)-3-methoxyphenyl)amino)pyridin-4-yl)oxy)naphthalen-1-yl)ureido)-2-methoxyphenyl)-methanesulfonamide] | 0.005 (≈ 5.87 µM) | 0.005 (≈ 5.87 µM) | – |
| COc1cc(Nc2cc(Oc3ccc(NC(=O)Nc4cc(C(C)(C)C)cc(NS(C)(=O)=O)c4OC)c4ccccc34)ccn2)ccc1C(=O)NC[C@H](O)[C@H](O)[C@H](O)CO [Example 42, 4-((4-((4-(3-(5-(tert-Butyl)-2-methoxy-3-(methylsulfonamido)phenyl)ureido)naphthalen-1-yl)oxy)pyridin-2-yl)amino)-2-methoxy-N-((2S,3S,4R)-2,3,4,5-tetrahydroxypentyl)benzamide] | 0.007 (≈ 8.4 µM) | 0.009 (≈ 10.8 µM) | – |
